Assay results reported in US8580831B2, “Fluorinated aminotriazole derivatives” (Actelion Pharmaceuticals Ltd., priority 2009, dated 2013).

How the values were obtained:
[1] = target: T1, human ALX receptor (Homo sapiens, UniProt P25090); assay: Intracellular calcium measurements (FLIPR), ALX receptor agonistic activity; format: cell-based; conditions: HEK293-hALXR-Ga16 cells, calcium flux, normalized to WKYMVm 10 nM; read-out: EC50 (agonistic activity with respect to the ALX receptor)
T1 construct: expressed in transfected cells; host or cells: HEK293 (HEK293-hALXR-Ga16)
T1 sequence (P25090 1-351): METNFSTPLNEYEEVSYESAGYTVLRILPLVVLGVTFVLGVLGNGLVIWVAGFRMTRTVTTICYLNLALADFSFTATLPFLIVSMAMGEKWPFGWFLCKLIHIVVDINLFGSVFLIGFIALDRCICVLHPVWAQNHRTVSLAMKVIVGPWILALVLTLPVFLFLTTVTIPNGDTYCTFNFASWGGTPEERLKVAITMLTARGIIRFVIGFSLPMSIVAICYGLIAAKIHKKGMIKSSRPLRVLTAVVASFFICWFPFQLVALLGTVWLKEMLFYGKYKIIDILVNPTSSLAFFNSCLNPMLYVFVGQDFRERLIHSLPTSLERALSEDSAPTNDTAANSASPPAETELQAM
Method: The ALX receptor agonistic activity of the compounds of formula (I) is determined in accordance with the following experimental method.
Intracellular Calcium Measurements:
Cells expressing recombinant human ALX receptor and the G-protein Ga16 (HEK293-hALXR-Ga16) were grown to 80% confluency in Growing Medium (GM). Cells were detached from culture dishes with a cell dissociation buffer (Invitrogen, 13151-014), and collected by centrifugation at 1′000 rpm at rt for 5 min in Assay Buffer (AB) (equal parts of Hank's BSS (Gibco, 14065-049) and DMEM without Phenol Red (Gibco, 11880-028)). After 60 min incubation at 37° C. under 5% CO2 in AB supplemented with 1 μM Fluo-4 (AM) (Invitrogen, F14202) and 20 mM HEPES (Gibco, 15630-056), the cells were washed and resuspended in AB. They were then seeded onto 384-well FLIPR assay plates (Greiner, 781091) at 50′000 cells in 70 μl per well and sedimented by centrifugation at 1′000 rpm for 1 min. Stock solutions of test compounds were made up at a concentration of 10 mM in DMSO, and serially diluted in AB to concentrations required for activation dose response curves. WKYMVm (Phoenix Peptides) was used as a reference agonist. A FLIPR Tetra instrument (Molecular Devices) was operated according to the manufacturer's standard instructions, adding 4 μl of test compound dissolved at 10 mM in DMSO and diluted prior to the experiment in assay buffer to obtain the desired final concentration. Changes in fluorescence were monitored before and after the addition of test compounds at lex=488 nm and lem=540 nm. Emission peak values above base level after compounds addition were exported after base line subtraction. Values were normalized to high-level control (WKYMVm compound, 10 nM final concentration) after subtraction of the base line value (AB addition).

[2] = tested on: proteins of human liver microsomes (HLM); assay: Covalent binding between reactive metabolites and proteins using human liver microsomes; format: in vitro ADME
Method: Assay for Covalent Binding Between Reactive Metabolites and Proteins Using Human Liver Microsomes
The objective of the described covalent binding assay is to determine the amount of covalent binding between reactive metabolites and proteins of human liver microsomes (HLM) per hour following incubation in the presence of an NADPH regenerating system. The measured covalent binding rate is expressed in pmol bound drug equivalent/mg protein/h. It is a well-known advantage if compounds have a low tendency to bind covalently to proteins.
The radiolabelled compounds (^3H or ^14C) were incubated at a concentration of 10 μM in a single 96 well plate with 1.0 mg/mL of human liver microsomes in 0.1 M phosphate buffer (pH 7.4). To this end, a volume of 2.5 μL 1 mM stock solution prepared in the respective solvent (ethanol) was added to a final volume of 250 μL. Incubations were performed in the absence or presence of the NADPH-regenerating system with glucose-6-phosphate dehydrogenase (20 IU/ml dehydrogenase, 25 μl with 11 mM NADP sodium salt, 100 mM glucose-6-phosphate disodium salt, 100 mM MgCl2 in 0.1 M Tris buffer, pH 7.4) and additionally in the absence or presence of 5 mM GSH to trap reactive intermediates. An initial blank value without NADPH without incubation was also determined to determine unspecific rapid binding. Reactions were initiated by addition of 25 μL of an NADPH-regenerating system and terminated after one hour by adding 200 μL of the incubation mixture on a multiscreen deep well solvinert 96 hydrophobic PTFE filter plate (Millipore, Zug, Switzerland) containing 260 μL of ice-cold acetonitrile. The precipitation of microsomal proteins was completed by shaking the plate at 600 rpm at a temperature of 15° C. for 15 min. Finally, the precipitated incubation was stored at 4° C. for 15 min in the fridge. Proteins and filtrates were separated by centrifugation at 1800 g for 20 min at 10° C. The protein pellet was washed to remove unspecific binding with 800 μL of methanol/0.1% sulfuric acid (v/v) by centrifugation at 1500 g, 10° C. and 2 min. The washing step was repeated six times. The washed protein pellet was redissolved by addition of 500 μL of aqueous 0.1% (w/v) NaOH/1% (w/v) SDS. The filter plate was shaken at 400 rpm for 45 min at 60° C. and centrifugated at 2000 g for 20 min at 35° C. This step was repeated once and the protein solutions were combined.
For the determination of total radioactivity, an aliquot of 400 μL protein solution was mixed with 4 mL of liquid scintillation cocktail (Irga Safe plus, Perkin Elmer, Zurich, Switzerland) and analyzed using a Tricarb 2300 TR liquid scintillation analyzer (Perkin Elmer) with luminescence correction and on-line quenching correction by means of an external standard (^133Ba). For the determination of total protein content, an aliquot of 20 μL protein solution was analyzed using the BCA protein assay kit (Perbio Science Switzerland SA, Lausanne, Switzerland). The amount of covalent binding to microsomal proteins was calculated as follows: Dividing the determined amount of bound drug equivalent with NADPH (background subtracted by the amount of bound drug equivalent without NADPH) by the calculated amount of protein of redissolved washed protein pellet in each well gives the amount of bound drug equivalent in pmol/mg protein per hour.

SMILES	EC50 [1]	also measured
Cc1nc(C(=O)Nc2cnn(Cc3ccc(C(C)(F)F)o3)n2)c(-c2cccc(OC(F)(F)F)c2)o1 [Example 27, 2-Methyl-5-(3-trifluoromethoxy-phenyl)-oxazole-4-carboxylic acid {2-[5-(1,1-difluoro-ethyl)-furan-2-ylmethyl]-2H-[1,2,3]triazol-4-yl}-amide]	59 nM	
CC(F)(F)c1ccc(Cn2ncc(NC(=O)c3ncoc3-c3ccccc3)n2)o1 [Example 28, 5-Phenyl-oxazole-4-carboxylic acid {2-[5-(1,1-difluoro-ethyl)-furan-2-ylmethyl]-2H-[1,2,3]triazol-4-yl}-amide]	6 nM	
Cc1nc(C(=O)Nc2cnn(Cc3nc(C(C)(F)F)cs3)n2)c(-c2cccc(Cl)c2)o1 [Example 29, 5-(3-Chloro-phenyl)-2-methyl-oxazole-4-carboxylic acid {2-[4-(1,1-difluoro-ethyl)-thiazol-2-ylmethyl]-2H-[1,2,3]triazol-4-yl}-amide]	5.6 nM	
CCc1nc(C(=O)Nc2cnn(Cc3nc(C(C)(F)F)cs3)n2)c(-c2ccccc2)o1 [Example 30, 2-Ethyl-5-phenyl-oxazole-4-carboxylic acid {2-[4-(1,1-difluoro-ethyl)-thiazol-2-ylmethyl]-2H-[1,2,3]triazol-4-yl}-amide]	11 nM	
Cc1cccc(-c2oc(C)nc2C(=O)Nc2cnn(Cc3nc(C(C)(F)F)co3)n2)c1 [Example 31, 2-Methyl-5-m-tolyl-oxazole-4-carboxylic acid {2-[4-(1,1-difluoro-ethyl)-oxazol-2-ylmethyl]-2H-[1,2,3]triazol-4-yl}-amide]	2.4 nM	Covalent binding profile compared to compounds of WO 2009/077990 ([2]; in words, versus examples 18 and 75 of WO 2009/077990): superior covalent binding profile; Covalent binding, HLM with NADPH and GSH ([2]; tritiated compound 10 μM, 1.0 mg/mL HLM, 1 h, with NADPH and 5 mM GSH): 28 pmol/mg protein per hour; Covalent binding, HLM with NADPH ([2]; tritiated compound 10 μM, 1.0 mg/mL HLM, 1 h, with NADPH-regenerating system): 22 pmol/mg protein per hour; Covalent binding, HLM without NADPH ([2]; tritiated compound 10 μM, 1.0 mg/mL HLM, 1 h, without NADPH): 3 pmol/mg protein per hour; Covalent binding, HLM with NADPH (background corrected as described above) [amount of bound drug equivalent] ([2]; tritiated compound 10 μM, 1.0 mg/mL HLM, 1 h, value without NADPH subtracted): 19 pmol/mg protein per hour
Cc1cccc(-c2oc(C)nc2C(=O)Nc2cnn(Cc3coc(C(C)(F)F)n3)n2)c1 [Example 32, N-(2-((2-(1,1-Difluoroethyl)oxazol-4-yl)methyl)-2H-1,2,3-triazol-4-yl)-2-methyl-5-(m-tolyl)oxazole-4-carboxamide]	12 nM	
Cc1nc(C(=O)Nc2cnn(Cc3nc(C(C)(F)F)co3)n2)c(-c2ccccc2)o1 [Example 33, 2-Methyl-5-phenyl-oxazole-4-carboxylic acid {2-[4-(1,1-difluoro-ethyl)-oxazol-2-ylmethyl]-2H-[1,2,3]triazol-4-yl}-amide]	2.9 nM	
CN(C)c1cccc(-c2ocnc2C(=O)Nc2cnn(Cc3nc(C(C)(F)F)co3)n2)c1 [Example 34, 5-(3-Dimethylamino-phenyl)-oxazole-4-carboxylic acid {2-[4-(1,1-difluoro-ethyl)-oxazol-2-ylmethyl]-2H-[1,2,3]triazol-4-yl}-amide]	6.1 nM	
CN(C)c1cc(-c2ocnc2C(=O)Nc2cnn(Cc3nc(C(C)(F)F)co3)n2)ccc1F [Example 35, 5-(3-Dimethylamino-4-fluoro-phenyl)-oxazole-4-carboxylic acid {2-[4-(1,1-difluoro-ethyl)-oxazol-2-ylmethyl]-2H-[1,2,3]triazol-4-yl}-amide]	4 nM	
Cc1nc(C(=O)Nc2cnn(Cc3nc(C(C)(F)F)co3)n2)c(-c2ccc(F)c(N(C)C)c2)o1 [Example 36, 5-(3-Dimethylamino-4-fluoro-phenyl)-2-methyl-oxazole-4-carboxylic acid{2-[4-(1,1-difluoro-ethyl)-oxazol-2-ylmethyl]-2H-[1,2,3]triazol-4-yl}-amide]	77 nM	
